Some results are limits rather than exact numbers.

The subject of one assay is HCT-116 cells. The assay is described as follows: Calcein AM viability assay, HCT-116. It is filed as cell-based. Particulars: Homo sapiens, HCT-116, non-protein adjusted, Table 6; read-out: HCT-116 viability IC50. As to the method:
The potency of Cdk inhibitors, as measured by loss of cellular viability, was determined with the Calcein AM assay (Molecular Probes). Calcein AM is a substrate of intracellular esterases, which is cleaved only in viable cells to generate a fluorescent product that can be quantified with a fluorescent plate reader. The fluorescent signal is proportional to the number of viable cells, and thus loss of signal in response to the exposure of cells to Cdk inhibitors correlates with a loss of viability. This assay can distinguish cell cycle arrest, in which cells may still by viable, from loss of viability and is thus well suited for the evaluation of Cdk inhibitors. A compound that is a potent cytotoxic, may cause significant loss of cell viability in such assay.
Cellular IC50's were determined in the human colorectal carcinoma cell line, HCT-116, and the normal human fibroblast, IMR90. Protein adjusted IC50's were also determined in HCT-116.
HCT-116 or IMR90 cells were recovered from sub-confluent plates by trypsinization and 1,000 or 4,000 cells, respectively, were plated in 24-well dishes and incubated overnight at 37° C., 5% CO2. HCT-116 cells were cultured in RPMI-1640, 10% FCS, and IMR90 cells were cultured in Minimum Essential Medium-alpha, 10% FCS. After overnight incubation to allow adherence, the media was aspirated from each well and replaced with media containing a test compound at a concentration from 0 to 250 nM, spanning a total of 7 doses. The plates were returned to the incubator and cultured for an additional 72 hours (3 days). […] After 72-hours incubation with the test compound, the cells were washed twice with 1×PBS, taking special care to remove all residual buffer.
A 5 μM Calcein AM solution was prepared by dissolving a […] aliquot of Calcein (Molecular Probes catalog # C3100) in 50 μl DMSO. After the Calcein had completely dissolved (10 minutes at room temperature), it was diluted into 10 ml PBS. Calcein/PBS (0.5 ml) was added to each well. The plates were incubated for 75 minutes at 37° C. (protected from light) and the fluorescent signal was read on a fluorescent plate reader (excitation 485/20 and emission 530/25).

The target of the next assay is T1, Cdk2/cyclin E (Homo sapiens, UniProt P24941).
T1 construct: made in house; host or cells: Sf9 insect cells
The assay is described as follows: Biochemical kinase assay Cdk2/cyclin E. Particulars: Table 6. From the text:
(§1) Enzymes: Cdc2/cyclin B was obtained from commercial sources. Cdk2/his-cyclin Eshort was expressed in Sf9 cells. Cdk2/cyclin A, cdk4/cyclin D1, and cdk6/cyclin D2 were expressed in Sf9 cells. Protein kinase A (catalytic subunit, from bovine heart) and protein kinase C (mixed isozymes from rat brain) were obtained from commercial sources.
(§2) Substrates: Histone H1 was from commercial sources. GST-Rb is glutathione-S-trans-ferase fused to the N-terminal of residues 379-928 of the Rb protein.
(§3) Cdk2/cyclin E, Cdk2/cyclin A, Cdk4/cyclin D1, and Cdk6/cyclin D2 activity was determined using a glutathione-sepharose capture assay. The enzymes were expressed in Sf9 insect cells as heterodimers, and the substrate (GST-Rb) was glutathione-S-transferase fused to residues 379 to 928 of Rb retinoblastoma protein, expressed in E. coli. The assay solution contained 50 mM Tris.HCl, 10 mM MgCl2, 1 mM dithiothreitol, 50 μM adenosine triphosphate, 2 μCi [γ-^33P]adenosine triphosphate, 10% dimethylsulfoxide (from compounds), pH 7.5, 40 μg GST-Rb, and enzyme in a 100 μL volume. Compounds were added at various concentrations between 1 nM and 10 μM. The reaction was allowed to proceed for 15 min at 30° C. and was stopped by the addition of 70 μL of stop solution (237 mM disodium ethylene-diamine tetraacetate, 105 mM adenosine triphosphate, pH 8.0). The GST-Rb was captured by binding to glutathione-sepharose bead (Amersham) for 110 min, and the suspension was filtered through a glass fiber filter. After washing the retained beads five time with phosphate-buffered saline containing 0.3% (w/v) Tween-20, the amount of ^33P incorporated was determined by scintillation counting after adding 100 μL scintillant. Relative activity was determined by dividing the amount of radioactivity incorporated in the presence of compound by the amount of radioactivity incorporated in a control experiment containing DMSO alone but no compound. The background radioactivity, determined in an experiment containing 50 mM disodium ethylenediamine tetraacetate in place of compound, was subtracted from all results before calculations.

A further assay has as its target T2, Cdc2/cyclin B (Homo sapiens, UniProt P06493).
T2 construct: purchased
The assay is described as follows: Biochemical kinase assay Cdc2/cyclin B. The settings on record: Table 6.
Excerpt: as §1, §2
Assays: Cdc2/cyclinB activity was determined by measuring incorporation of radio-activity from adenosine [γ-^32P]triphosphate into Histone H1 using a TCA precipitation assay. Cdc2/cyclin B kinase and Histone H1 were obtained from commercial sources. The final assay solution contained 50 mM Tris.HCl, 10 mM MgCl2, 1 mM dithiothreitol, 50 μM adenosine triphosphate, 2 μCi ^32P, 10% dimethylsulfoxide (from compounds), pH 7.5, 20 μg Histone H1, 6 U enzyme in a 50 μL volume. Compounds were added at various concentrations between 1 nM and 10 μM. The reaction was started with the addition of enzyme, allowed to proceed for 20 min at 30° C., and stopped by the addition of 20 μL of stop solution (237 mM disodium ethylenediamine tetraacetate, 105 mM adenosine triphosphate, pH 8.0). The protein was precipitated by the addition of 35 μL 70% (w/v) trichloroacetic acid, and the precipitate was captured on a 96-well glass fiber filter plate (Millipore, Inc.), which had been wet with 25% (w/v) trichloroacetic acid. The filter was washed ten times with 25% (w/v) trichloroacetic acid, and the amount of incorporated ^32P was determined by scintillation counting after adding 100 μL scintillant (Microscint 20, Packard Instruments). Relative activity was determined by dividing the amount of radioactivity incorporated in the presence of compound by the amount of radioactivity incorporated in a control experiment containing DMSO alone but no compound. The background radioactivity, determined in an experiment containing 50 mM EDTA in place of compound, was subtracted from all results before calculations.

The target of the next assay is T3, Cdk4/cyclin D1 (Homo sapiens, UniProt P11802).
T3 construct: made in house; host or cells: Sf9 insect cells
T3 sequence (P11802 whole entry, species assumed): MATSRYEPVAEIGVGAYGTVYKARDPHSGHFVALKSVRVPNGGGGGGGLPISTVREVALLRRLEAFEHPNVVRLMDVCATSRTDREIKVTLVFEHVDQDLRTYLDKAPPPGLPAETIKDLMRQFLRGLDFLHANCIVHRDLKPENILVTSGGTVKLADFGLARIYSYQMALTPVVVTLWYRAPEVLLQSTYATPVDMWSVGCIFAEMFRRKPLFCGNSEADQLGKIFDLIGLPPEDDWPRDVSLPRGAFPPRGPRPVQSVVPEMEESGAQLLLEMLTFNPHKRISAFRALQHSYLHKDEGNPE
T3 sequence (P24385 whole entry partner, species assumed): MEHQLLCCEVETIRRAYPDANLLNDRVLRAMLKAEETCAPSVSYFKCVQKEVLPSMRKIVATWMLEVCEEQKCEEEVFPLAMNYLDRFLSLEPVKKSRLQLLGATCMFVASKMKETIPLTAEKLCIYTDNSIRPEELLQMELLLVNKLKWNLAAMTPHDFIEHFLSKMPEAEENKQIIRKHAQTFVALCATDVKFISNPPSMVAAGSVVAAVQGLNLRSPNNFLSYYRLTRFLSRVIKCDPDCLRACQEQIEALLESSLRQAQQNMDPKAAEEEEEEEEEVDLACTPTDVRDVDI
In words: Biochemical kinase assay Cdk4/cyclin D1. The settings on record: Table 6.
Excerpt: as §1, §2, §3

T2 sequence (P06493 whole entry, species assumed): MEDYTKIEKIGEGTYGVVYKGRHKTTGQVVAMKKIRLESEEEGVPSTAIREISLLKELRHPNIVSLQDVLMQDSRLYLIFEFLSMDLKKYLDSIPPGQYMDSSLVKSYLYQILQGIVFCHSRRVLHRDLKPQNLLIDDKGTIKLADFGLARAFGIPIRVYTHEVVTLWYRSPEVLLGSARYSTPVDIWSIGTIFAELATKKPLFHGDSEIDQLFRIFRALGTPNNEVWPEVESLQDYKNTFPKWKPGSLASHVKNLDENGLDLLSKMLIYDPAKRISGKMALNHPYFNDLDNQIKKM
T2 sequence (P14635 whole entry partner, species assumed): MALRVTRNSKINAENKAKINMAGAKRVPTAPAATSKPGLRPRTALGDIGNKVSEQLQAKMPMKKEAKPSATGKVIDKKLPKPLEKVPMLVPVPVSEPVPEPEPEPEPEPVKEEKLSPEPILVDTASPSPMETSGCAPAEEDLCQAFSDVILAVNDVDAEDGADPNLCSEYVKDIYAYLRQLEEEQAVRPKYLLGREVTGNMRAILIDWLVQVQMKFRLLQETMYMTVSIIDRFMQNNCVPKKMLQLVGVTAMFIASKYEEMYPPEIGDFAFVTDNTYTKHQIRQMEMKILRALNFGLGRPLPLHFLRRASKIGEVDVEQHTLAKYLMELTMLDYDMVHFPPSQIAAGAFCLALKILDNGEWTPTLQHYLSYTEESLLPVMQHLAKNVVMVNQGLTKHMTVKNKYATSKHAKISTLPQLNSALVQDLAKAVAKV

What is called IC50 is the concentration needed to halve the response being measured. In the case of `CC(C)c1nn(-c2c(Cl)cc(Cl)cc2Cl)c2nc(Cc3ccc(OCCN4CCN(C(C)C)CC4)cc3)[nH]c(=O)c12` [Compound A1], the IC50 was below 100 nM in the assay on HCT-116 cells, below 10 nM against Cdk2/cyclin E, below 100 nM on Cdc2/cyclin B and below 1000 nM against Cdk4/cyclin D1.
As to `CC(C)c1nn(-c2c(Cl)cccc2Cl)c2nc(Cc3ccc(OCCN4CCOCC4)cc3)[nH]c(=O)c12` [Compound A2], the IC50 with HCT-116 cells was below 100 nM; at Cdk2/cyclin E, below 10 nM; at Cdc2/cyclin B, below 1000 nM; at Cdk4/cyclin D1, below 10000 nM.
For `CC(C)c1nn(-c2c(Cl)cccc2Cl)c2nc(Cc3ccc(O)cc3)[nH]c(=O)c12` [Compound A4] the same measures were below 100 nM, below 10 nM, below 100 nM and below 100 nM.
On to `CC(C)c1nn(-c2c(Cl)cccc2Cl)c2nc(Cc3ccc(O)c(CN4CCOCC4)c3)[nH]c(=O)c12` [Compound A5], for which the half-maximal inhibitory concentration (IC50) was below 100 nM in the assay on HCT-116 cells, below 100 nM at Cdk2/cyclin E, below 1000 nM against Cdc2/cyclin B and below 10000 nM at Cdk4/cyclin D1.
As to `CC(C)c1nn(-c2c(Cl)cccc2Cl)c2nc(Cc3ccc(NS(=O)(=O)CCCN4CCOCC4)cc3)[nH]c(=O)c12` [Compound A30], the IC50 in the assay on HCT-116 cells was below 100 nM; at Cdk2/cyclin E it was below 100 nM; against Cdc2/cyclin B it was below 1000 nM; against Cdk4/cyclin D1 it was below 1000 nM.
On to `CC(C)c1nn(-c2c(Cl)cc(Cl)cc2Cl)c2nc(Cc3ccc(CN4CCN(C(C)C)CC4)n3C)[nH]c(=O)c12` [Compound A42], for which the IC50 with HCT-116 cells was below 100 nM; against Cdk2/cyclin E, below 100 nM; against Cdc2/cyclin B it was below 1000 nM; at Cdk4/cyclin D1, below 1000 nM.
With `CC(C)c1nn(-c2c(Cl)cc(Cl)cc2Cl)c2nc(Cc3ccc(CN4CCCC4)n3C)[nH]c(=O)c12` [Compound A43], the IC50 was below 100 nM in the assay on HCT-116 cells, below 100 nM on Cdk2/cyclin E, below 1000 nM against Cdc2/cyclin B and below 1000 nM against Cdk4/cyclin D1.
Consider `CC(C)c1nn(-c2c(Cl)cc(Cl)cc2Cl)c2nc(Cc3ccc(NS(=O)(=O)CCCN4CCCCC4)cc3)[nH]c(=O)c12` [Compound A48], for which the figures for the half-maximal inhibitory concentration (IC50) in the assay on HCT-116 cells, against Cdk2/cyclin E and against Cdc2/cyclin B were below 100 nM, below 100 nM and below 1000 nM, respectively.
For the compound `CC(C)c1nn(-c2c(Cl)cccc2Cl)c2nc(Cc3ccc(CN4CCN(C(C)C)CC4)c(O)c3)[nH]c(=O)c12` [Compound A50], the IC50 in the assay with HCT-116 cells was below 100 nM; against Cdk2/cyclin E, below 100 nM; against Cdc2/cyclin B, below 1000 nM.
`CC(C)c1nn(-c2c(Cl)cccc2Cl)c2nc(Cc3ccc(C(=O)NOCCN4CCOCC4)cc3)[nH]c(=O)c12` [Compound A52]: the half-maximal inhibitory concentration (IC50) in the assay on HCT-116 cells was below 100 nM; on Cdk2/cyclin E, below 100 nM; against Cdc2/cyclin B, below 1000 nM; on Cdk4/cyclin D1 it was below 1000 nM.
On to `CCN1CCN(S(=O)(=O)c2cc(Cl)c(-n3nc(C(C)C)c4c(=O)[nH]c(Cc5ccc(OCCN6CCOCC6)cc5)nc43)c(Cl)c2)CC1` [Compound A53], for which the half-maximal inhibitory concentration (IC50) in the assay on HCT-116 cells was below 10 nM; against Cdk2/cyclin E, below 1000 nM; against Cdc2/cyclin B it was below 1000 nM; against Cdk4/cyclin D1 it was below 10000 nM.
As for `CC(C)c1nn(-c2c(Cl)cc(S(N)(=O)=O)cc2Cl)c2nc(Cc3ccc(OCCN4CCOCC4)cc3)[nH]c(=O)c12` [Compound A54], the IC50 with HCT-116 cells is below 100 nM; at Cdk2/cyclin E it was below 10 nM; against Cdc2/cyclin B it was below 10 nM; against Cdk4/cyclin D1, below 1000 nM.
For the compound `CCN(CCO)S(=O)(=O)c1cc(Cl)c(-n2nc(C(C)C)c3c(=O)[nH]c(Cc4ccc(OCCN5CCOCC5)cc4)nc32)c(Cl)c1` [Compound A55], the IC50 with HCT-116 cells is below 100 nM; against Cdk2/cyclin E, below 100 nM; at Cdc2/cyclin B, below 100 nM; on Cdk4/cyclin D1 it was below 10000 nM.
On to `CC(C)c1nn(-c2c(Cl)cccc2Cl)c2nc(Cc3ccc(OCCOP(=O)(O)O)cc3)[nH]c(=O)c12` [Compound A62], for which the IC50 is below 100 nM with HCT-116 cells, below 100 nM at Cdk2/cyclin E, below 100 nM against Cdc2/cyclin B and below 10000 nM at Cdk4/cyclin D1.

The record behind these values is patent US7605175B2, “Inhibitors of cyclin-dependent kinases, compositions and uses related thereto” (GPC Biotech AG, priority 2001, dated 2009).
